Experimental data as given in publication PMC8398472, “Anticancer Diiron Vinyliminium Complexes: A Structure–Activity Relationship Study” (Pharmaceutics, 2021).
Several values for one entry are separate records, joined by “and”; a condition that tells them apart may be missing. Identical values can stand only once. Like-named read-outs stand apart in the source and are kept apart here.

Tests used:
[1] = cited from earlier work; for Log Pow: previously determined
[2] = tested on: human ovarian carcinoma cisplatin-sensitive A2780; design: method as in PMID 31441186; details: previously determined on the same cell line; cited from earlier work
[3] = tested on: human ovarian carcinoma cisplatin-sensitive A2780; assay: Cytotoxicity, WST-1 cell viability assay, A2780; type: cell-based; details: for IC50: 72 h exposure; for Selectivity index (S.I.): ratio between IC50 for Balb/3T3 and IC50 for A2780
Description: (§1) In vitro cytotoxicity investigations were carried out by using human ovarian carcinoma cisplatin-sensitive A2780 (ECACC93112519), human ovarian carcinoma cisplatin-resistant A2780cisR (ECACC 93112517) and mouse embryo fibroblasts Balb/3T3 clone A31 (ATCC CCL-163) cell lines. A2780 and A2780cisR were purchased from the European Collection of Authenticated Cell Cultures (ECACC), and Balb/3T3 clone A31 cell line from the American Type Culture Collection (ATCC).
(§2) A2780 and A2780cisR cells were routinely cultured in RPMI 1640 (Merck) containing 2 mM of L-glutamine (Merck), 1% of penicillin/streptomycin solution (Merck—10 000 U mL^−1: 10 mg mL^−1), 10% of fetal bovine serum (Merck—FBS) and antimycotic (InvivoGen, USA), and Balb/3T3 clone A31 in Dulbecco’s modified Eagle medium (Merck—DMEM) supplemented with 4 mM of L-glutamine, 1% of penicillin/streptomycin solution, 10% of calf serum (Merck) and antimycotic. […] The cultures were maintained at 37 °C and in a 5% CO2-enriched atmosphere.
(§3) A2780, A2780cisR and Balb/3T3 clone A31 cells were seeded in 96-well tissue culture polystyrene plates at a concentration of 3 × 10^3, 6 × 10^3 and 1 × 10^3 cells per well, respectively. After overnight incubation, the cells were treated with different concentrations (0–100 µM) of the selected compounds for 72 h at 37 °C in a 5% atmosphere of CO2. Stock solutions of compounds were prepared in DMSO and sequentially diluted in medium (final DMSO concentration of 0.5%). […] At the end of the incubation time, cell viability was assessed by means of WST-1 tetrazolium salt reagent (Roche). Briefly, cells were incubated for 4 h with the tetrazolium salt reagent diluted 1:10, at 37 °C and 5% CO2. Measurements of formazan dye absorbance, which directly correlates with the number of viable cells, were carried out with a micro-plate reader (Biorad) at 450 nm, using 655 nm as reference wavelength. The 50% inhibitory concentration (IC50) refers to compound concentration at which 50% of cell death is observed with respect to the control. For each tested compound, assay was performed on triplicate. The concentration effect curves were generated by nonlinear regression curves (GraphPad Prism Software, 2021) and the data reported as mean ± standard deviation.

[4] = tested on: mouse embryo fibroblasts Balb/3T3 clone A31; assay: Cytotoxicity, WST-1 cell viability assay, Balb/3T3 clone A31; type: cell-based; details: 72 h exposure
Description: as §1, §2, §3

[5] = tested on: human ovarian carcinoma cisplatin-resistant A2780cisR; assay: Cytotoxicity, WST-1 cell viability assay, A2780cisR; type: cell-based; details: 72 h exposure
Description: as §1, §2, §3

[6] = Octanol–water partition coefficient (shake-flask, UV–Vis); type: physicochemical; details: 21 °C
Description: • (c) Octanol–water partition coefficients (Log Pow). Partition coefficients (Pow; IUPAC: KD partition constant), defined as Pow = corg/caq, where corg and caq are molar concentrations of the selected compound in the organic and aqueous phase, respectively, were determined by the shake-flask method and UV–Vis measurements. Deionized water and 1-octanol were vigorously stirred for 24 h to enable saturation of both phases, then separated by centrifugation. A stock solution of the selected diiron compound (ca. 2 mg; 2a–c, 3b, 4a–c, 5a, 5c, 6b,c, 7) was prepared by first adding acetone (50 μL, to help solubilization), followed by water-saturated octanol (2.5 mL). The solution was diluted with water-saturated octanol (ca. 1:3 v/v ratio, cFe2 ≈ 10^−4 M, so that 1.5 ≤ A ≤ 2.0 at λmax) and the UV–Vis spectrum was recorded (A^0org). An aliquot of the solution (Vorg = 1.2 mL) was transferred into a test tube and octanol-saturated water (Vorg = Vaq = 1.2 mL) was added. The mixture was vigorously stirred for 15 min at 21 °C and then centrifuged (5000 rpm, 10 min). The UV–Vis spectrum of the organic phase was recorded (A^forg) and the partition coefficient was calculated as Pow = A^forg/(A^0org − A^forg), where A^0org and A^forg are the absorbance in the organic phase before and after partition with the aqueous phase, respectively. An inverse procedure was followed for 3a, 3c, 5b and 6a, starting from a solution of the compound in octanol-saturated water. The partition coefficient was calculated as Pow = (A^0aq − A^faq)/A^faq where A^0aq and A^faq are the absorbance in the aqueous phase before and after partition with the organic phase, respectively. The wavelength of the maximum absorption of each compound (ca. 300 nm) was used for UV–Vis quantitation. The procedure was repeated three times for each sample (from the same stock solution); results are given as mean ± standard deviation.

[7] = Solubility in D2O by 1H NMR (Me2SO2 internal standard); type: physicochemical; details: for Solubility: 21 °C
Description: (§4) • (a) Solubility in D2O. A suspension of the selected diiron compound (3–5 mg) in a D2O solution (ca. 1 mL) containing Me2SO2 (3.36 × 10^−3 M) as internal standard was vigorously stirred at 21 °C for 1.5 h. The resulting saturated solution was filtered over celite, transferred into an NMR tube and then analyzed by ^1H NMR spectroscopy (delay time = 3 s; number of scans = 20). The concentration (solubility) was calculated by the relative integral (related to Cp and/or NMe signals) with respect to Me2SO2 (δ = 3.14 ppm). • (b) Stability in DMSO-d6/D2O solution. The selected diiron compound (ca. 4 mg) was added of 1 mL of D2O (3a,c) or DMSO-d6/D2O (2:1 v/v) mixture (2a,c, 3b, 4a–c, 5a–c, 6a–c, 7), containing Me2SO2 (3.36 × 10^−3 M). The resulting mixture was stirred for 30 min and then filtered over celite; the filtrated solution was transferred into an NMR tube. The sample was analyzed by ^1H NMR (time = 0) and then heated at 37 °C for 72 h. After cooling to room temperature, the solution was separated from a small amount of solid by filtration over celite, and the new ^1H NMR spectrum was recorded (delay time = 3 s; number of scans = 20). In every case, no newly formed organometallic species was detected. The amount of starting material in solution (% with respect to the initial spectrum) was calculated by the relative integral (vs. Cp and/or NMe signals) with respect to Me2SO2 as internal standard.

[8] = Stability in DMSO-d6/D2O or D2O solution at 37 °C for 72 h (1H NMR); type: physicochemical; details: 72 h at 37 °C
Description: as §4

Compound	IC50 [3]	IC50 [4]	Log Pow [6]	Solubility [7]	Selectivity index (S.I.) [3]	Stability % (residual % of starting material) ([8]; DMSO-d6/D2O (2:1 v/v))	other results
O=C1C=CC(=O)c2ccccc21 [Naphthoquinone]							Log P ([1]; literature value): 1.71
CC1=[C](C)[Fe+]2(=[C]=O)[C](=O)[Fe+]2[C]1=[N+](C)c1c(C)cccc1C.O=S(=O)([O-])C(F)(F)F.c1cc[cH-]c1.c1cc[cH-]c1 (stereo not shown) [[Fe2Cp2(CO)(μ-CO){μ-η^1:η^3-C^3(Me)C^2(Me)C^1NMe(Xyl)}]CF3SO3]							IC50 [2]: 0.5 ± 0.06 µM; Log Pow [1]: 0.0
Cc1cccc(C)c1[N+](C)=[C]1C=[C](c2ccccc2)[Fe+]2(=[C]=O)[C](=O)[Fe+]12.O=S(=O)([O-])C(F)(F)F.c1cc[cH-]c1.c1cc[cH-]c1 (stereo not shown) [[Fe2Cp2(CO)(μ-CO){μ-η^1:η^3-C^3(Ph)C^2HC^1NMe(Xyl)}]CF3SO3]							IC50 [2]: 0.9 ± 0.06 µM; Log Pow [1]: 0.4
N.N.[Cl][Pt][Cl] [cisplatin, reference compound]	0.4 ± 0.07 µM	0.8 ± 0.2 µM					IC50 [5]: 26 ± 3 µM
[Fe2Cp2(CO)(μ-CO){μ-η^1:η^3-C^3(Et)C^2(Et)C^1NMe(CH2Ph)}]CF3SO3 [Compound 5c]	3.75 ± 0.14 µM	90 ± 8 µM	0.13 ± 0.01	1.10 × 10^−3 mol·L^−1 and 0.73 g·L^−1	24	84%	
[Fe2Cp2(CO)(μ-CO){μ-η^1:η^3-C^3(Me)C^2(Me)C^1NMe(CH2CH = CH2)}]CF3SO3 [Compound 3c]	~17 µM and 17 µM	> 100 µM	−0.77 ± 0.01	6.89 × 10^−3 mol·L^−1 and 4.02 g·L^−1	>5.9		Stability % (residual % of starting material) ([8]; neat D2O): 85 ^a %
[Fe2Cp2(CO)(μ-CO){μ-η^1:η^3-C^3(Me)C^2HC^1N(CH2Ph)2}]CF3SO3 [Compound 2a]	2 ± 0.7 µM	14 ± 4 µM	0.45 ± 0.04		7	81%	
[Fe2Cp2(CO)(μ-CO){μ-η^1:η^3-C^3(Me)C^2HC^1NMe2}]CF3SO3							IC50 [2]: 35 ± 3 µM; Log Pow [1]: −0.3
[Fe2Cp2(CO)(μ-CO){μ-η^1:η^3-C^3(Me)C^2HC^1NMe(4-C6H4OMe)}]CF3SO3 [Compound 6a]	3.5 ± 0.5 µM	94 ± 4 µM	−0.46 ± 0.01	2.22 × 10^−3 mol·L^−1 and 1.41 g·L^−1	27	94%	
[Fe2Cp2(CO)(μ-CO){μ-η^1:η^3-C^3(Me)C^2HC^1NMe(CH2CH = CH2)}]CF3SO3 [Compound 3a]	17.7 ± 0.8 µM	> 100 µM	−0.75 ± 0.01	6.43 × 10^−3 mol·L^−1 and 3.66 g·L^−1	>5.6		Stability % (residual % of starting material) ([8]; neat D2O): 93 ^a %
[Fe2Cp2(CO)(μ-CO){μ-η^1:η^3-C^3(Me)C^2HC^1NMe(CH2Ph)}]CF3SO3 [Compound 5a]	7.1 ± 0.4 µM	> 100 µM	−0.26 ± 0.01		>14	85%	
[Fe2Cp2(CO)(μ-CO){μ-η^1:η^3-C^3(Ph)C^2HC^1N(CH2Ph)2}]CF3SO3 [Compound 2b]			1.4 and 1.4 ± 0.2				Solubility in D2O (in words) [7]: almost insoluble in D2O
[Fe2Cp2(CO)(μ-CO){μ-η^1:η^3-C^3(Ph)C^2HC^1NMe(Cy)}]CF3SO3 [Compound 4b]	2.6 ± 0.3 µM	35 ± 3 µM	0.41 ± 0.02	1.52 × 10^−3 mol·L^−1 and 1.02 g·L^−1	13	65%	
